Tests used:
[1] = tested on: NAE binding protein (At1g26440); test: [3H]NAE 14:0 radioligand binding to recombinant At1g26440 protein expressed in E. coli; design: species or system Arabidopsis thaliana
Protocol: FIG. 4 Full length cDNAs synthesized through RT-PCR on Arabidopsis total RNA using gene specific primers to At1g26440 were cloned into pTrc His2 expression vector and the recombinant protein over expressed in E. coli Top10 competent cells (Invitrogen, Cat. No. K4400-01 and K4400-40). Positive clones selected on amp-glucose agar plates were analyzed for producing NAE 14:0 binding protein by using [^3H]NAE 14:0 binding assay (Tripathy et al., 2003). Bacterial lysate (L) prepared from pelleted positive clones induced with IPTG for recombinant protein production was used as the protein source. T10-1, T-10-2, T10-3: Positive clones carrying A. thaliana NAE-binding protein (At1g26440); T10-4: Negative clone carrying the gene sequence in reverse orientation; T10-0: Control Top10 cells. Binding assay was performed on cell lysate (L) and the affinity purified (ProBond purification system, Invitrogen) recombinant protein (P) fraction. Histograms represent binding activity (from two studies with four replicates each).
FIG. 5 Saturation binding of [^3H]NAE 14:0 to a candidate NAE binding protein (At1g26440) expressed in E. coli Top10 cell lysate. The candidate NAE binding protein was a full-length, in-frame cDNA. […]
[^3H]NAE 14:0 radioligand was synthesized from [9,10-^3H(N)]myristic acid (PerkinElmer Life Sciences, Boston) in a modified two step reaction (Hillard et al., 1995; Devane et al., 1992). […] The [^3H]NAE 14:0 formed was further purified and quantified by separating on thin layer chromatography (TLC) and radiometric scanning respectively (Tripathy et al., 2003).
Binding activity of [^3H]NAE 14:0 was carried out with DDM-solubilized microsomes from Arabidopsis (ecotype, columbia) leaves (Tripathy et al., 2003b) or recombinant protein produced in E. coli and solubilized in DDM. […] Unbound ligands were washed off with ice cold binding buffer (75 mM potassium-phosphate buffer, pH 7.2, 300 mM sucrose, 7.5 mM KCl, 0.75 mM EDTA, 0.75 mM EGTA, 0.5 mM ascorbate, 5 mM DTT, and 1.5% BSA) under vacuum and frozen filters were excised into scintillation cocktail for radioactivity estimation.

[2] = molecular target: membrane-associated NAE-binding activities; conditions: cited from earlier work; for challenge of [3H]NAE 14:0 binding by CB receptor antagonist: plant membranes
[3] = tested on: defense gene (Phenylalanine-ammonia lyase) expression; conditions: coadministration, leaves; cited from earlier work
[4] = tested on: Arabidopsis microsomal protein; test: [3H]NAE 14:0 radioligand binding to Arabidopsis leaf microsomes; design: species or system Arabidopsis thaliana; conditions: 5 nM SR144528, [3H]NAE 14:0 50 nM
Protocol: FIG. 1. Analysis of specific binding of [^3H]NAE 14:0 to DDM solubilized (0.2 mM) microsomes (25 μg of protein) isolated from A. thaliana (ecotype Columbia) leaves (150,000×g) with a concentration ranging from 10 to 80 nM. Specific binding was determined by subtracting nonspecific binding (binding in the presence of 1,500× nonradioactive NAE 14:0) values from total radioligand binding values in duplicate assays. Binding affinity and Bmax of [^3H]NAE 14:0 was estimated by fitting the saturation binding data to nonlinear regression analysis for a one-site binding equation using Prism 3.0, Graphpad software, San Diego.
FIG. 7 Microsomes from A. thaliana leaves and affinity purified (P) protein from T10-1 cell lysate were incubated with [^3H]NAE 14:0 (50 nM) in the presence and absence of CB receptor antagonist SR144528 (5 nM) to compare the influence on [3H]NAE binding. Values represent means of triplicate assays from an individual experiment reproduced twice.
[^3H]NAE 14:0 radioligand was synthesized from [9,10-^3H(N)]myristic acid (PerkinElmer Life Sciences, Boston) in a modified two step reaction (Hillard et al., 1995; Devane et al., 1992). In step one, acylchloride is prepared from [3 H] […] The [^3H]NAE 14:0 formed was further purified and quantified by separating on thin layer chromatography (TLC) and radiometric scanning respectively (Tripathy et al., 2003). […]

CCCCCCCCCCCCCC(=O)NCCO [NAE 14:0]
affinity of recombinant protein for NAE 14:0 (saturation binding) ([1]; recombinant At1g26440 expressed in E. coli, DDM solubilized): high affinity | binding activity of [3H]NAE 14:0 (affinity) ([2]; membrane-associated, saturable, in lower nanomolar range): high affinity

SR144528
effect on NAE-regulated defense gene expression [3]: blocked | effect on NAE14:0 binding ([1]; 5 nM SR144528, [3H]NAE 14:0 50 nM, recombinant At1g26440 gene product): diminished | effect on NAE specific binding ([1]; higher concentrations of SR144528 (above 5 nM), preparation not specified): eliminated | effect on NAE14:0 binding [4]: diminished | challenge of [3H]NAE 14:0 binding by CB receptor antagonist [2]: potently challenged

Cc1c(C(=O)NN2CCOCC2)nn(-c2ccc(Cl)cc2Cl)c1-c1ccc(I)cc1 [AM 281]
challenge of [3H]NAE 14:0 binding by CB receptor antagonist [2]: potently challenged

Reference: US20060288450A1, “Plant N-acylethanolamine binding proteins” (Samuel Roberts Noble Foundation, priority 2004, published 2006)
